Assays:
Assay type in all cases: in vivo
Details in all cases: applied at 1000 g/h, evaluated after 13 days
[1] = system: Echinochloa crus-galli (ECHCG); assay: Herbicidal glasshouse test, pre-emergence, ECHCG
Procedure, shortened: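 Echinochloa crus-galli seeds were sown in standard soil in pots and grown for one day in a glasshouse at 24/16° C. day/night, 14 hours light and 65% humidity. Pre-emergence spraying used an aqueous solution of the active ingredient in acetone/water (50:50) with 0.5% Tween 20. Damage was scored after 13 days on a five point scale.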

[2] = system: Alopecurus myosuroides (ALOMY); assay: Herbicidal glasshouse test, post-emergence, ALOMY
[3] = system: Ipomoea hederacea (IPOHE); assay: Herbicidal glasshouse test, post-emergence, IPOHE
[4] = system: Amaranthus retoflexus (AMARE); assay: Herbicidal glasshouse test, pre-emergence, AMARE
Procedure, shortened: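 Amaranthus retoflexus seeds were sown in pots of standard soil and kept one day in a glasshouse at 24/16° C. (day/night), 14 hours light and 65% humidity. They were then sprayed pre-emergence with the active ingredient in acetone/water (50:50) containing 0.5% Tween 20. Plants grew under the same conditions, watered twice daily, and percentage damage was scored after 13 days.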

[5] = system: Alopecurus myosuroides (ALOMY); assay: Herbicidal glasshouse test, pre-emergence, ALOMY
Solanum nigrum (SOLNI) [6] = assay: Herbicidal glasshouse test, post-emergence, SOLNI
[7] = system: Ipomoea hederacea (IPOHE); assay: Herbicidal glasshouse test, pre-emergence, IPOHE
[8] = system: Amaranthus retoflexus (AMARE); assay: Herbicidal glasshouse test, post-emergence, AMARE
Procedure, shortened: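 Amaranthus retoflexus (AMARE) seeds were sown in pots of standard soil and grown in a glasshouse at 24/16° C. day/night, 14 hours light and 65% humidity for 8 days. The plants were then sprayed post-emergence with an aqueous solution of the active ingredient in acetone/water (50:50) with 0.5% Tween 20. Damage was scored after 13 days.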

Setaria faberi (SETFA) [9] = assay: Herbicidal glasshouse test, pre-emergence, SETFA
Setaria faberi (SETFA) [10] = assay: Herbicidal glasshouse test, post-emergence, SETFA
Procedure, shortened: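 Setaria faberi seeds were sown in standard soil in pots and grown for 8 days in a glasshouse at 24/16° C. day/night, 14 hours light and 65% humidity. The seedlings were then sprayed post-emergence with the active ingredient in acetone/water (50:50) containing 0.5% Tween 20. Afterwards they were kept under the same conditions, watered twice daily, and scored for percentage damage on a five point scale.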

Solanum nigrum (SOLNI) [11] = assay: Herbicidal glasshouse test, pre-emergence, SOLNI
Procedure, shortened: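 Seeds of Solanum nigrum were sown in pots of standard soil and kept one day in a glasshouse at 24/16° C. day/night, 14 hours light and 65% humidity. For the pre-emergence treatment they were then sprayed with an aqueous solution of the active ingredient formulated in acetone/water (50:50) containing 0.5% Tween 20. Plant damage was rated after 13 days.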

[12] = system: Echinochloa crus-galli (ECHCG); assay: Herbicidal glasshouse test, post-emergence, ECHCG
Procedure, shortened: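 Echinochloa crus-galli (ECHCG) seeds were sown in standard soil in pots and grown for 8 days in a glasshouse at 24/16° C. day/night, 14 hours light and 65% humidity. The young plants were then sprayed post-emergence with the active ingredient in acetone / water (50:50) containing 0.5% Tween 20. Damage was scored after 13 days.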

Compound | PRE Application ECHCG, percentage damage (five point scale) [1] | POST Application ALOMY, percentage damage (five point scale) [2] | POST Application IPOHE, percentage damage (five point scale) [3] | PRE Application AMARE, percentage damage (five point scale) [4] | PRE Application ALOMY, percentage damage (five point scale) [5] | POST Application SOLNI, percentage damage (five point scale) (Solanum nigrum (SOLNI) [6]) | PRE Application IPOHE, percentage damage (five point scale) [7] | POST Application AMARE, percentage damage (five point scale) [8] | PRE Application SETFA, percentage damage (five point scale) (Setaria faberi (SETFA) [9]) | POST Application SETFA, percentage damage (five point scale) (Setaria faberi (SETFA) [10]) | PRE Application SOLNI, percentage damage (five point scale) (Solanum nigrum (SOLNI) [11]) | POST Application ECHCG, percentage damage (five point scale) [12]
C=CCn1c(=O)c(C(=O)Nc2nnnn2C)nn(C)c1=O [Compound 1.004] | 4 (4=60-79%) | 4 (4=60-79%) | 5 (5=80-100%) | 5 (5=80-100%) | 3 (3=40-59%) | 5 (5=80-100%) | 4 (4=60-79%) | 5 (5=80-100%) | 2 (2=20-39%) | 4 (4=60-79%) | 5 (5=80-100%) | 4 (4=60-79%)
Cn1cnnc1NC(=O)c1nn(C)c(=O)n(-c2cccc(F)c2F)c1=O [Compound 6.002] | 2 (2=20-39%) | 4 (4=60-79%) | 5 (5=80-100%) | 5 (5=80-100%) | 2 (2=20-39%) | 5 (5=80-100%) | 5 (5=80-100%) | 5 (5=80-100%) | 2 (2=20-39%) | 4 (4=60-79%) | 5 (5=80-100%) | 4 (4=60-79%)
CCCn1nnnc1NC(=O)c1cn(C)c(=O)n(-c2cccc(F)c2)c1=O [Compound 4.005] | 2 (2=20-39%) | 3 (3=40-59%) | 5 (5=80-100%) | 4 (4=60-79%) | 1 (1=0-19%) | 5 (5=80-100%) | 4 (4=60-79%) | 5 (5=80-100%) | 1 (1=0-19%) | 1 (1=0-19%) | 5 (5=80-100%) | 2 (2=20-39%)
CCCCn1c(=O)c(C(=O)Nc2nncn2C)nn(C)c1=O [Compound 6.003] | 4 (4=60-79%) | 3 (3=40-59%) | 5 (5=80-100%) | 5 (5=80-100%) | 1 (1=0-19%) | 4 (4=60-79%) | 5 (5=80-100%) | 5 (5=80-100%) | 5 (5=80-100%) | 2 (2=20-39%) | 5 (5=80-100%) | 1 (1=0-19%)
Cc1cc(C)cc(Cn2c(=O)c(C(=O)Nc3nnnn3C)nn(C)c2=O)c1 [Compound 1.074] | 4 (4=60-79%) | 4 (4=60-79%) | 2 (2=20-39%) | 5 (5=80-100%) | 5 (5=80-100%) | 5 (5=80-100%) | 3 (3=40-59%) | 5 (5=80-100%) | 1 (1=0-19%) | 1 (1=0-19%) | 5 (5=80-100%) | 3 (3=40-59%)
COc1ccc(F)c(Cn2c(=O)c(C(=O)Nc3nnnn3C)nn(C)c2=O)c1Cl [Compound 1.077] | 4 (4=60-79%) | 4 (4=60-79%) | 4 (4=60-79%) | 3 (3=40-59%) | 4 (4=60-79%) | 4 (4=60-79%) | 4 (4=60-79%) | 3 (3=40-59%) | 2 (2=20-39%) | 2 (2=20-39%) | 4 (4=60-79%) | 4 (4=60-79%)
Cn1ncnc1NC(=O)c1nn(C)c(=O)n(-c2cccc(F)c2F)c1=O [Compound 5.002] | 3 (3=40-59%) | 5 (5=80-100%) | 5 (5=80-100%) | 5 (5=80-100%) | 3 (3=40-59%) | 5 (5=80-100%) | 5 (5=80-100%) | 5 (5=80-100%) | 2 (2=20-39%) | 5 (5=80-100%) | 5 (5=80-100%) | 5 (5=80-100%)
Cc1cc(Cn2c(=O)c(C(=O)Nc3nnnn3C)nn(C)c2=O)ccc1F [Compound 1.075] | 5 (5=80-100%) | 2 (2=20-39%) | 5 (5=80-100%) | 5 (5=80-100%) | 5 (5=80-100%) | 5 (5=80-100%) | 5 (5=80-100%) | 5 (5=80-100%) | 1 (1=0-19%) | 1 (1=0-19%) | 5 (5=80-100%) | 3 (3=40-59%)
